System: paw oedema
Experiment: Carrageenan-induced paw oedema in rats (foot volume by water plethysmograph)
Type: in vivo, rat
Conditions: for % Inhibition after sub-plantar injection, 2 hours after / % Inhibition after sub-plantar injection, 4 hours after: Table 1; for % Inhibition after sub-plantar injection, 2 hours after: 2 hours after carrageenan; for % Inhibition after sub-plantar injection, 4 hours after: 4 hours after carrageenan
Source text: Groups of five male Charles River CD rats in the weight range 180 to 240 g were used. On their arrival, rats were housed in controlled environment rooms and fed a standard diet for at least one week before use.
Rats were starved overnight before the test, although water was given ad libitum. A mark was made on the ankle joint of each rat, the day before the test, to indicate where the foot volume was to be measured.
Compounds were made up in the appropriate vehicle for dosing via either the subcutaneous (s.c.), intravenous (i.v.) or oral (p.o.) routes. Melagatran was dosed in water (20 μmol/kg) when given p.o., and in saline, and in cyclodextrin (40%), when given s.c. (0.7 to 2 μmol/kg). Drugs were administered in a dose volume of 5 mL/kg body weight for p.o. dosing or 1 to 2 mL/kg body weight for s.c. dosing. Control rats received the equivalent volume of vehicle.
A 1% solution of carrageenan in saline was prepared the day prior to the test. The carrageenan was suspended in saline and stirred vigorously on a magnetic stirrer for one hour. It was then stored at 4° C. until required. Thirty minutes after dosing, each rat was injected s.c. in the plantar region of the left hind foot with 0.1 mL of 1% carrageenan.
To reduce both discomfort to the rat and variability in the test, rats were housed on wood chip bedding in solid bottom cages. The rats had access to a solution of 5% glucose throughout the duration of the test.
The plethysmograph was calibrated using blocks of 2 mL and 4 mL mass before the first, and after the last, measurement at each time point.
Foot volumes were measured before dosing and up to 6 hours after the sub-plantar injection of carrageenan. The increase in foot volume for each rat was calculated using the difference between the individual foot volume at time zero, and at the various time points. The inhibition afforded by a treatment was expressed as a percentage inhibition of the mean absolute increase in foot volume in treated animals compared to control animals. Indomethacin at 10 mg/kg p.o. was always included as an internal standard. If indomethacin gave less than 30% inhibition at 4 h then the test was considered invalid.

[1] = Table 2, 2 μmol/kg s.c. in cyclodextrin
[2] = Table 2, 20 μmol/kg p.o. in water
[3] = Table 3, 2 μmol/kg s.c. in saline
[4] = Table 4, 0.7 μmol/kg s.c. in saline
[5] = Table 4, 1.4 μmol/kg s.c. in saline
[6] = Table 4, 2.0 μmol/kg s.c. in saline

In the case of C[C@@H]1C[C@H]2[C@@H]3CCC4=CC(=O)C=C[C@]4(C)[C@@]3(F)[C@@H](O)C[C@]2(C)[C@@]1(O)C(=O)CO [Dexamethasone, reference compound], the “% Inhibition after sub-plantar injection, 2 hours after” value (“% Inhibition … 2 hours after” below) (0.03 mg/kg p.o.) is reported as 47%, the “% Inhibition after sub-plantar injection, 4 hours after” value (from here on “% Inhibition … 4 hours after”) (0.03 mg/kg p.o.) is reported as 74% and the “% Inhibition … 2 hours after” value (0.3 mg/kg p.o.) is reported as 51%. For the same compound, the “% Inhibition … 4 hours after” value (0.3 mg/kg p.o.) was 96%.
For CC(C)Cc1ccc(C(C)C(=O)O)cc1 (stereo not shown) [Ibuprofen, reference compound], the “% Inhibition … 2 hours after” value (10 mg/kg p.o.) was 22% and the “% Inhibition … 4 hours after” value (10 mg/kg p.o.) was 26%.
For COc1ccc2c(c1)c(CC(=O)O)c(C)n2C(=O)c1ccc(Cl)cc1 [Indomethacin, reference compound], the “% Inhibition … 2 hours after” value (10 mg/kg p.o.) was 43%, the “% Inhibition … 4 hours after” value (10 mg/kg p.o.) was 50% and the “% Inhibition after 1 hour” value (Table 2, 10 mg/kg p.o.) was −5%. For the same compound, the “% Inhibition after 2 hours” value (Table 2, 10 mg/kg p.o.) was 50%, the “% Inhibition after 3 hours” value (Table 2, 10 mg/kg p.o.) was 39% and the “% Inhibition after 4 hours” value (Table 2, 10 mg/kg p.o.) was 12%. The “% Inhibition after 1 hour” value (Table 3, 10 mg/kg p.o.) was 15%, the “% Inhibition after 2 hours” value (Table 3, 10 mg/kg p.o.) was 2% and the “% Inhibition after 3 hours” value (Table 3, 10 mg/kg p.o.) was 29%. The “% Inhibition after 4 hours” value (Table 3, 10 mg/kg p.o.) was 18%.
N=C(N)c1ccc(CNC(=O)[C@@H]2CCN2C(=O)[C@H](NCC(=O)O)C2CCCCC2)cc1 [Melagatran, HOOC—CH2—(R)Cgl-Aze-Pab-H] was tested, and the “% Inhibition after 1 hour” value [1] was 29%, the “% Inhibition after 2 hours” value [1] was 13% and the “% Inhibition after 3 hours” value [1] was 3%. The “% Inhibition after 4 hours” value [1] was 13%, the “% Inhibition after 1 hour” value [2] was 14% and the “% Inhibition after 2 hours” value [2] was 17%. For the same compound, the “% Inhibition after 3 hours” value [2] was −14%, the “% Inhibition after 4 hours” value [2] was −2% and the “% Inhibition after 1 hour” value [3] was 39%. The “% Inhibition after 2 hours” value [3] was 8%, the “% Inhibition after 3 hours” value [3] was 2% and the “% Inhibition after 4 hours” value [3] was −8%. The “% Inhibition after 1 hour” value [4] was 39%, the “% Inhibition after 1.5 hours” value [4] was −1% and the “% Inhibition after 2 hours” value [4] was 9%. The “% Inhibition after 3 hours” value [4] was 16%, the “% Inhibition after 1 hour” value [5] was 65% and the “% Inhibition after 1.5 hours” value [5] was 40%. For the same compound, the “% Inhibition after 2 hours” value [5] was 5%, the “% Inhibition after 3 hours” value [5] was 7% and the “% Inhibition after 1 hour” value [6] was 76%. For the same compound, the “% Inhibition after 1.5 hours” value [6] was 41%, the “% Inhibition after 2 hours” value [6] was 17% and the “% Inhibition after 3 hours” value [6] was 19%. The “inhibition of the oedema” value (in saline, 2 μmol/kg s.c., after 1 h) was 39%, the “inhibition of paw oedema, dose and time dependence (in words)” value (in saline, 0.7, 1.4 and 2 μmol/kg s.c., 1 to 3 hours) was “inhibited paw oedema in both a dose dependent, and time dependent, manner” and the “inhibiting paw oedema (in words)” value (orally 20 μmol/kg in water, 30 minutes prior to carrageenan, up to 6 h post dosing) was “ineffective”.

From patent US6683054B1, “Use of melagatran” (AstraZeneca AB, priority 1999, dated 2004)
